ChEMBL document CHEMBL3407429, “Multifunctional tacrine-trolox hybrids for the treatment of Alzheimer's disease with cholinergic, antioxidant, neuroprotective and hepatoprotective properties” (Eur J Med Chem, 2015)
Active and inactive are the calls of the source. The calls are words filed in the database; no cut-off is given here.

Assays:
[1] = molecular target: Acetylcholinesterase (Electrophorus electricus, UniProt O42275)
Description: Inhibition of electric eel AChE using acetylthiocholine iodide as substrate preincubated for 6 mins before substrate addition by Ellman's method

[2] = molecular target: Cholinesterase (Equus caballus, UniProt P81908)
Cholinesterase (Equus caballus, UniProt P81908), sequence (P81908 whole entry): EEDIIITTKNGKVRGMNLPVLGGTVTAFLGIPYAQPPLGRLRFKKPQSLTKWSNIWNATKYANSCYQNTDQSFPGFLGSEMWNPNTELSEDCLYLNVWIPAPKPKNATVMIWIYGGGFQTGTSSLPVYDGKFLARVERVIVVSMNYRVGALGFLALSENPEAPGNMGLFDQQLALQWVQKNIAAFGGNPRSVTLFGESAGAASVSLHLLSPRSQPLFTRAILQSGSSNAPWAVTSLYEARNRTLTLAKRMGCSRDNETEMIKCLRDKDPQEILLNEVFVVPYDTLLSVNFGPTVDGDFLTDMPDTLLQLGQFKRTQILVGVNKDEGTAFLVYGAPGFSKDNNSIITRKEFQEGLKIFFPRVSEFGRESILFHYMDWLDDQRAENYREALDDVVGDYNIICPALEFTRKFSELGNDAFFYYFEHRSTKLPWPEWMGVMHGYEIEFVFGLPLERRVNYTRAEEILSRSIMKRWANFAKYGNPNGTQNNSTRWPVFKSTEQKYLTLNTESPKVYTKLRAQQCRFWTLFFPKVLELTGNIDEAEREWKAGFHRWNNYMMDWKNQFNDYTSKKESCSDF
Description: Inhibition of equine serum BuChE using S-butyrylthiocholine iodide as substrate preincubated for 6 mins before substrate addition by Ellman's method

[3] = molecular target: Acetylcholinesterase (Homo sapiens, UniProt P22303)
Acetylcholinesterase (Homo sapiens, UniProt P22303), sequence (P22303 whole entry): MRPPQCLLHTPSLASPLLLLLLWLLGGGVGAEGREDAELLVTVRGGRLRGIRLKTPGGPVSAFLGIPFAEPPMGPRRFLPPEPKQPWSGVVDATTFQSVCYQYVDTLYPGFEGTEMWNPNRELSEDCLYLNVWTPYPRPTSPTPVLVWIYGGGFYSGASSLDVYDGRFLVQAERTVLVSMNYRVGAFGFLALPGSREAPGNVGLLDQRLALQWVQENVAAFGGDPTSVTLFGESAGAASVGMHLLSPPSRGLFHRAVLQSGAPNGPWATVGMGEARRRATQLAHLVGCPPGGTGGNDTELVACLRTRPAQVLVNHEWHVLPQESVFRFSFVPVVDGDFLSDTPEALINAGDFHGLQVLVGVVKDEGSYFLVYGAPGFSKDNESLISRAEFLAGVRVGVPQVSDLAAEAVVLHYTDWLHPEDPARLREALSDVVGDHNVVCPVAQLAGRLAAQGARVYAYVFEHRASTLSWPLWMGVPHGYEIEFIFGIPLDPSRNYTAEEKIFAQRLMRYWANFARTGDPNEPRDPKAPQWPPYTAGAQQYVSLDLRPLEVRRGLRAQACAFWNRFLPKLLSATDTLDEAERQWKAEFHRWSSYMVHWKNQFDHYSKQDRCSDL
Description: Inhibition of human erythrocyte AChE using acetylthiocholine iodide as substrate preincubated for 6 mins before substrate addition by Ellman's method

[4] = molecular target: Cholinesterase (Homo sapiens, UniProt P06276)
Cholinesterase (Homo sapiens, UniProt P06276), sequence (P06276 whole entry): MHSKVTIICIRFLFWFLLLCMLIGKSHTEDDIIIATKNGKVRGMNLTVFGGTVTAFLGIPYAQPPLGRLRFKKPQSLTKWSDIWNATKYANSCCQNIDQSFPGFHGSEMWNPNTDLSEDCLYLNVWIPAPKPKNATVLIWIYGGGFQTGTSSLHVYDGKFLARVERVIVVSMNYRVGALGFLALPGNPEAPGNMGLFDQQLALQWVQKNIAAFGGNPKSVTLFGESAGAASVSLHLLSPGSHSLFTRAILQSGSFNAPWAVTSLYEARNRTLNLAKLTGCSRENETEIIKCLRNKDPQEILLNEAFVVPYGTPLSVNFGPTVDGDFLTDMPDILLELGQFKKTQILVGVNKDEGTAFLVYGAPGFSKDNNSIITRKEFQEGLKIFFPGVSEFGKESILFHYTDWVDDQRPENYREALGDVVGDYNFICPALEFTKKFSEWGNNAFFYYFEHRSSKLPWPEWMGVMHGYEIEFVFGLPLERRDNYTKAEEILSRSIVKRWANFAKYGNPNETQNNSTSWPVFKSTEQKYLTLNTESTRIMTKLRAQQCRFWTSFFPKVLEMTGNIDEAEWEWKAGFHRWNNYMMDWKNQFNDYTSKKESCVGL
Description: Inhibition of human serum BuChE using S-butyrylthiocholine iodide as substrate preincubated for 6 mins before substrate addition by Ellman's method

[5] = molecular target: Acetylcholinesterase (Electrophorus electricus) (UniProt O42275); assay: Mixed-type inhibition of electric eel AChE using acetylthiocholine iodide as substrate by Lineweaver-Burk double reciprocal plot method
Acetylcholinesterase (Electrophorus electricus), sequence (O42275 24-633 limits assumed): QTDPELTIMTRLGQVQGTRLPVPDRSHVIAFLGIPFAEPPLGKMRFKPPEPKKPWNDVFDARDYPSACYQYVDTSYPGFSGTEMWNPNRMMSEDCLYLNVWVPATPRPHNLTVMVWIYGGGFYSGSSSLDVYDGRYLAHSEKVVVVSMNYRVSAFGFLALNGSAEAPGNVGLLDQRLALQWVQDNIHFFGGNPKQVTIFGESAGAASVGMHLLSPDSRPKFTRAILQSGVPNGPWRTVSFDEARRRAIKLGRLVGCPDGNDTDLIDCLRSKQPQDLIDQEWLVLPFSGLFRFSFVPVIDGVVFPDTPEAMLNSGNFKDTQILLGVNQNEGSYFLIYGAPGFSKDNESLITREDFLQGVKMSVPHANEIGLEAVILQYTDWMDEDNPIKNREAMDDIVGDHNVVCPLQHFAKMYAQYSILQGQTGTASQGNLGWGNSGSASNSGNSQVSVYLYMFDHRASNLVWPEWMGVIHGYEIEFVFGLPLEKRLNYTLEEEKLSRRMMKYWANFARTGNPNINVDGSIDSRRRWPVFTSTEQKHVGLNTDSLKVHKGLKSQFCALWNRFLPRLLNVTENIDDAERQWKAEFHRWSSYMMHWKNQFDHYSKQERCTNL

[6] = system: PC-12; assay: Neuroprotective activity against H2O2-induced oxidative stress in rat PC12 cells assessed as inhibition of cell death preincubated at 3.125 to 6.25 uM for 2 hrs before H2O2 addition measured after 24 hrs by MTT assay; format: functional, cell-based
[7] = system: PC-12; assay: Neuroprotective activity against H2O2-induced oxidative stress in rat PC12 cells assessed as cell viability preincubated at 12.5 to 6.25 uM for 2 hrs before H2O2 addition measured after 24 hrs by MTT assay; format: functional, cell-based
[8] = Cytotoxicity against rat PC12 cells assessed as reduction in cell viability at 1.563 to 12.5 uM after 48 hrs by MTT assay; format: cell-based; details: pc-12, 48 h
[9] = system: Rattus norvegicus; assay: Hepatotoxicity in Sprague-Dawley rat assessed as increase in aspartate aminotransferase activity in serum at 6 umol/100g body weight, ip measured up to 72 hrs; format: toxicity, organism-based; details: in vivo
[10] = system: Rattus norvegicus; assay: Hepatotoxicity in Sprague-Dawley rat assessed as increase in alanine aminotransferase activity in serum at 6 umol/100g body weight, ip measured up to 72 hrs; format: toxicity, organism-based; details: in vivo
[11] = system: Rattus norvegicus; assay: Hepatotoxicity in Sprague-Dawley rat at 6 umol/100g body weight, ip measured after 24 hrs by histomorphological study; format: toxicity, organism-based; details: in vivo
[12] = in vitro; details: PAMPA
Description: Permeability of the compound in PBS and EtOH by PAMPA method

Acetylcholinesterase (Electrophorus electricus, UniProt O42275), sequence (O42275 whole entry): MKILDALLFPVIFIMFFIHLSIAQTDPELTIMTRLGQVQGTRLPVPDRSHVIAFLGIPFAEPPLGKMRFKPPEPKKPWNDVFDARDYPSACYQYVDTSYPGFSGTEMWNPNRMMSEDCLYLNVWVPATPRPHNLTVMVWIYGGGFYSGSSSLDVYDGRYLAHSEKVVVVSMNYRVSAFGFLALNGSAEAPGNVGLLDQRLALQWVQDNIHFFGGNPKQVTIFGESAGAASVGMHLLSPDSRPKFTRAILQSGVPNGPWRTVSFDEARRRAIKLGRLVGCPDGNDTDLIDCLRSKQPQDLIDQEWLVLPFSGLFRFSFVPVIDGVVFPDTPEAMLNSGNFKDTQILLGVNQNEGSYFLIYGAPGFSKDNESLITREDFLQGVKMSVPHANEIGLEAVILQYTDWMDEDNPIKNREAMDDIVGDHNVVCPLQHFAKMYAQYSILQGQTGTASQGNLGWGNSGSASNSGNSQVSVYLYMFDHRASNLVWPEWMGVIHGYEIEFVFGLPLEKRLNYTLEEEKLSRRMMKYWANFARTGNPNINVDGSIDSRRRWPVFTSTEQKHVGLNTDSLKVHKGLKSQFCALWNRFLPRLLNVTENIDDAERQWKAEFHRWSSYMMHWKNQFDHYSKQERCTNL

| Compound | IC50 [1] [nM] | IC50 [2] [nM] | IC50 [3] [nM] | IC50 [4] [nM] | IC50 [nM] | Papp [12] [×10⁻⁶ cm/s] | further results |
| --- | --- | --- | --- | --- | --- | --- | --- |
| Cc1c(C)c2c(c(C)c1O)CCC(C)(C(=O)NCCCCCNc1c3c(nc4ccccc14)CCCC3)O2 (configuration not stated) | 250 | 35.4 | 215 | 10.2 | 40.7 |  |  |
| Cc1c(C)c2c(c(C)c1O)CCC(C)(C(=O)NCCCCNc1c3c(nc4ccccc14)CCCC3)O2 (configuration not stated) | 558 | 15.6 | 535 | 5.2 | 44.2 |  |  |
| Cc1c(C)c2c(c(C)c1O)CCC(C)(C(=O)NCCCCCCNc1c3c(nc4ccccc14)CCCC3)O2 (configuration not stated) | 9.8 | 22.2 | 23.5 | 20.5 | 48.7 | 8.87 | inhibition [5]: Active; inhibition [6]: Active; inhibition [7]: inactive; Activity [8]: Non-toxic; Activity [9]: Non-toxic; Activity [10]: Non-toxic; Activity [11]: Non-toxic |
| Cc1c(C)c2c(c(C)c1O)CCC(C)(C(=O)NCCNc1c3c(nc4ccccc14)CCCC3)O2 (configuration not stated) | 150 | 41.3 | 284 | 56.3 | 30.4 |  |  |
| Cc1c(C)c2c(c(C)c1O)CCC(C)(C(=O)NCCCCCCCNc1c3c(nc4ccccc14)CCCC3)O2 (configuration not stated) | 92.4 | 61.7 | 144 | 19.2 | 46.9 |  |  |
| Cc1c(C)c2c(c(C)c1O)CCC(C)(C(=O)NCCCCCCCCCCNc1c3c(nc4ccccc14)CCCC3)O2 (configuration not stated) | 387 | 263 | 453 | 110 | 43.2 |  |  |
| CN1C(C(=O)Nc2ccccn2)=C(O)c2ccccc2S1(=O)=O [PIROXICAM] |  |  |  |  |  | 0.6 |  |
| Cc1c(C)c2c(c(C)c1O)CCC(C)(C(=O)NCCCCCCCCNc1c3c(nc4ccccc14)CCCC3)O2 (configuration not stated) | 228 | 151 | 226 | 34.7 | 47.3 |  |  |
| C[C@]12CCC(=O)C=C1CC[C@@H]1[C@@H]2CC[C@@]2(C)[C@H]1CC[C@]2(O)C(=O)CO [CORTODOXONE] |  |  |  |  |  | 2.5 |  |
| Cc1c(C)c2c(c(C)c1O)CCC(C)(C(=O)O)O2 (configuration not stated) [TROLOX] |  |  |  |  | 35.6 |  |  |
| CCn1cc(C(=O)O)c(=O)c2cc(F)c(N3CCNC(C)C3)c(F)c21 (configuration not stated) [LOMEFLOXACIN] |  |  |  |  |  | 0.8 |  |
